Test results published in patent US9079866B2, “Flap modulators” (JANSSEN PHARMACEUTICA NV, priority 2013, dated 2015).
Where a name gives a salt, the structure may show the parent alone.

target: human FLAP (Homo sapiens (Human), UniProt P20292); assay: FLAP binding assay (HTRF format); conditions: human FLAP wild type, HTRF format; average of two plates, duplicates
Procedure: The ability of the compounds of the present invention to treat a FLAP-mediated disease and/or disorder, or associated symptoms or complications thereof, was determined using the following procedures. Binding assay data represent the average value obtained from two different assay plates, with samples run in duplicate on each plate. Human whole blood assay data represent a single replicate on an assay plate using whole blood from at least one healthy donor.
Data are expressed as a HTRF ratio.

Sequence of human FLAP (P20292 whole entry): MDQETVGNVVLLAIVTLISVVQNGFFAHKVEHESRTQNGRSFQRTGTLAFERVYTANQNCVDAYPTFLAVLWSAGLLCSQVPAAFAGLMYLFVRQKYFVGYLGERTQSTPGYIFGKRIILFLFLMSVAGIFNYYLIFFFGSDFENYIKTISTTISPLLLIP

Row | Compound | Ki
1 | C[C@H](CO)NS(=O)(=O)Cc1ccccc1-c1ccc(-c2cnc(N)cn2)c(F)c1 [Example 225, (R)-1-(4′-(5-Aminopyrazin-2-yl)-3′-fluoro-[1,1′-biphenyl]-2-yl)-N-(1-hydroxypropan-2-yl)-methanesulfonamide hydrochloride] | 0.856 µM
2 | Nc1cnc(-c2ccc(-c3ccccc3CSc3cccnn3)cc2F)cn1 [Example 239, 5-(3-Fluoro-2′-((pyridazin-3-ylthio)methyl)-[1,1′-biphenyl]-4-yl)pyrazin-2-amine hydrochloride] | 0.006 µM
3 | CC(C)(C)S(=O)(=O)c1ccccc1-c1ccc(-c2cnc(N)cn2)c(F)c1 [Example 194, 5-[2′-(tert-Butylsulfonyl)-3-fluorobiphenyl-4-yl]pyrazin-2-amine] | 0.733 µM
4 | CC(C)Sc1ncc(C(F)(F)F)cc1-c1ccc(-c2cnc3[nH]ccc3n2)c(F)c1 [Example 394, 2-(2-Fluoro-4-{2-[(1-methylethyl)sulfanyl]-5-(trifluoromethyl)pyridin-3-yl}phenyl)-5H-pyrrolo[2,3-b]pyrazine] | > 10 µM

same assay, conditions: wild type FLAP, HTRF format

Row | Compound | Ki
5 | Nc1ncc(-c2ccc(-c3ccccc3C(=O)N3CCOC(C(F)(F)F)C3)cc2F)cn1 (racemic) [Example 766, racemic 5-(3-Fluoro-2′-{[2-(trifluoromethyl)morpholin-4-yl]carbonyl}biphenyl-4-yl)pyrimidin-2-amine] | 1.91 µM
6 | Nc1ncc(-c2ccc(-c3ccccc3-c3cnc(N)nc3)cn2)cn1 [Example 855, 5-{5-[2-(2-Aminopyrimidin-5-yl)phenyl]pyridin-2-yl}pyrimidin-2-amine] | > 10 µM
7 | Nc1cc(S(=O)(=O)c2ccccc2-c2ccc(-c3cnc(N)nc3)c(F)c2)ncn1 [Example 721, 5-{2′-[(6-Aminopyrimidin-4-yl)sulfonyl]-3-fluorobiphenyl-4-yl}pyrimidin-2-amine] | > 10 µM
8 | Nc1ncc(-c2ccc(-c3ccccc3OC3CCNCC3)cc2F)cn1 [Example 631, 5-[3-Fluoro-2′-(piperidin-4-yloxy)biphenyl-4-yl]pyrimidin-2-amine] | > 10 µM
9 | CC(C)(CN)S(=O)(=O)c1ccccc1-c1ccc(-c2cnc(N)cn2)c(F)c1 [Example 737, 5-{2′-[(2-Amino-1,1-dimethylethyl)sulfonyl]-3-fluorobiphenyl-4-yl}pyrazin-2-amine] | 0.984 µM
10 | Nc1ccc(-c2ccc(-c3ccccc3S(N)(=O)=O)cc2F)cn1 [Example 662, 4′-(6-Aminopyridin-3-yl)-3′-fluoro-[1,1′-biphenyl]-2-sulfonamide trifluoroacetate] | ~1.22 µM
11 | Nc1ncc(-c2ccc(-c3ccccc3C(=O)NC3CCC(O)CC3)cc2F)cn1 (mixture of isomers) [Example 765, (cis/trans) 4′-(2-Aminopyrimidin-5-yl)-3′-fluoro-N-(4-hydroxycyclohexyl)biphenyl-2-carboxamide] | > 10 µM
12 | Cc1cc(-c2ccccc2S(C)(=O)=O)ccc1-c1cnc(N)cn1 [Example 590, 5-[3-Methyl-2′-(methylsulfonyl)biphenyl-4-yl]pyrazin-2-amine] | > 10 µM
13 | CC(C)(C)NS(=O)(=O)c1ccccc1-c1ccc(-c2cnc(N)nc2C#N)c(F)c1 [Example 703, 4′-(2-Amino-4-cyanopyrimidin-5-yl)-N-tert-butyl-3′-fluorobiphenyl-2-sulfonamide] | > 10 µM
14 | Nc1ncc(-c2ccc(-c3ccccc3C(=O)N3CCC[C@H](O)C3)cc2F)cn1 [Example 767, (3S)-1-{[4′-(2-Aminopyrimidin-5-yl)-3′-fluorobiphenyl-2-yl]carbonyl}piperidin-3-ol] | > 10 µM
15 | CC(O)C1CN(C(=O)c2ccccc2-c2ccc(-c3cnc(N)cn3)c(F)c2)CCO1 (mixture of isomers) [Example 758, 1-(4-{[4′-(5-Aminopyrazin-2-yl)-3′-fluorobiphenyl-2-yl]carbonyl}morpholin-2-yl)ethanol (Diastereomeric Mixture)] | 0.557 µM
16 | Nc1ncc(-c2ccc(-c3ccccc3S(=O)(=O)CC(=O)N3CCOCC3)cc2F)cn1 [Example 601, 5-{3-Fluoro-2′-[(2-morpholin-4-yl-2-oxoethyl)sulfonyl]biphenyl-4-yl}pyrimidin-2-amine] | > 10 µM
17 | Nc1ncc(-c2ccc(-c3ccccc3C(=O)NCCO)cc2F)cn1 [Example 761, 4′-(2-Aminopyrimidin-5-yl)-3′-fluoro-N-(2-hydroxyethyl)biphenyl-2-carboxamide] | > 10 µM
18 | CC(C)(C)C(=O)Nc1ncccc1-c1ccc(-c2cnc(N)cn2)c(F)c1 [Example 801, N-{3-[4-(5-Aminopyrazin-2-yl)-3-fluorophenyl]pyridin-2-yl}-2,2-dimethylpropanamide] | > 10 µM
19 | Nc1ncc(-c2ccc(-c3ccccc3C(=O)N3CC(O)C3)cc2F)cn1 [Example 791, [2-[4-(2-Aminopyrimidin-5-yl)-3-fluoro-phenyl]phenyl]-(3-hydroxyazetidin-1-yl)methanone] | > 10 µM
20 | CC(C)(CN)S(=O)(=O)c1ccccc1-c1ccc(-c2cnc(N)nc2)c(F)c1 [Example 734, 5-{2′-[(2-Amino-1,1-dimethylethyl)sulfonyl]-3-fluorobiphenyl-4-yl}pyrimidin-2-amine] | > 10 µM
21 | Nc1cnc(-c2ccc(-c3cccnc3S(=O)(=O)C3CCNCC3)cc2F)cn1 [Example 832, 5-{2-Fluoro-4-[2-(piperidin-4-ylsulfonyl)pyridin-3-yl]phenyl}pyrazin-2-amine hydrochloride] | 1.31 µM
22 | CN(C)S(=O)(=O)c1ccccc1-c1ccc(-c2cnc(N)cn2)cc1F [Example 575, 4′-(5-Aminopyrazin-2-yl)-2′-fluoro-N,N-dimethylbiphenyl-2-sulfonamide] | 0.75 µM
23 | CCOC(=O)c1cccc2nc(-c3ccc(-c4ccccc4S(=O)(=O)NC(C)(C)C)cc3F)cn12 [Example 587, Ethyl 2-[2′-(tert-butylsulfamoyl)-3-fluorobiphenyl-4-yl]imidazo[1,2-a]pyridine-5-carboxylate] | > 10 µM
24 | Nc1ncc(-c2ccc(-c3ccccc3S(=O)(=O)c3ncccn3)cc2F)cn1 [Example 718, 5-[3-Fluoro-2′-(pyrimidin-2-ylsulfonyl)biphenyl-4-yl]pyrimidin-2-amine] | > 10 µM
25 | Nc1ncc(-c2ccc(-c3ccccc3S(=O)(=O)C3CC3)cn2)cn1 [Example 691, 5-{5-[2-(Cyclopropylsulfonyl)phenyl]pyridin-2-yl}pyrimidin-2-amine trifluoroacetic acid salt] | > 10 µM
26 | CN(C)S(=O)(=O)c1ccccc1-c1ccc(-c2cnc(N)cn2)cc1 [Example 572, 4′-(5-Aminopyrazin-2-yl)-N,N-dimethylbiphenyl-2-sulfonamide] | 0.37 µM
27 | Nc1cnc(-c2ccc(-c3ccccc3N3CCNC3=O)cc2F)cn1 [Example 702, 1-(4′-(5-Aminopyrazin-2-yl)-3′-fluoro-[1,1′-biphenyl]-2-yl)imidazolidin-2-one] | ~0.304 µM
28 | Nc1cnc(-c2ccc(-c3ccccc3F)cc2F)cn1 [Example 468, 5-(2′,3-Difluorobiphenyl-4-yl)pyrazin-2-amine] | 0.62 µM
29 | CC(C)(C)NS(=O)(=O)c1ccccc1-c1ccc(-c2cn3cc(C(N)=O)ccc3n2)c(F)c1 [Example 582, 2-[2′-(tert-Butylsulfamoyl)-3-fluorobiphenyl-4-yl]imidazo[1,2-a]pyridine-6-carboxamide] | > 10 µM
